Legend:
Assay type in all cases: cell-based, human
hESCs [1] = assay: HDAC inhibition with TSA on BMP4-induced hESC differentiation in MIM
From the text: Though not TE-selective, BMP4 supplementation to MIM was the most robust protocol for hESC differentiation to multiple lineages. To test whether or not TSA caused lineage specific inhibition, this protocol was used to assess HDAC inhibition on hESC differentiation to TE, ME or ExE. […] Thus HDAC inhibition delayed BMP4-induced hESC differentiation in the short-term, without altering lineage selection
96-well Microplates were scanned using the 5 or 10× objective on the ArrayScan V Automated image analysis was performed using the Compartmental Analysis BioApplication using Hoechst for identification of nuclei and various transcription factor antibodies (Table 2). Nuclear-specific fluorescence intensity was determined from approximately 300 single cells per well from 3-6 independent wells to produce a well-average nuclear intensity for each measurement Mean and standard deviation were calculated from multiple wells. Fold change of the mean intensities were normalized against matched unstimulated external controls, usually the pluripotent condition, to divide out differences due to efficiency of antibody-antigen binding and chromophore quantum yield. […] Select conditions are additionally compared in bar graph format to show standard deviations and T-tests.
Colony morphology was quantified by statistical multiresolution analysis of image texture (Mangoubi et al., 2007; Sammak et al., 2008). Image texture is a mathematical measure of the size and sharpness of objects in the image, which is illustrated in one dimension by an intensity line profile (FIG. 10). […] Therefore, we employ texture analysis as an integrated measure of colony morphology. Texture was measured using wavelet analysis (Do and Vetterli, 2002), a generalization of Fourier analysis, to decompose colony texture in phase contrast images (4× objective, Nikon TMS microscope), producing a joint probability density function for the wavelet coefficients from various scales. Different culture conditions can be distinguished as belonging to distinct classes. Each class is thus represented by a probability density function, and quantitative comparative features for classifying and statistically distinguishing colony textures are extracted from the density functions. One such feature is the Kullback-Leibler (KL) distance (Do and Vetterli, 2002). […] Specifically the KL distance between a pair of colonies from the same class is shorter than a pair from different classes.

hESC = assay: TSA toxicity in hESC
[2] = tested on: pluripotent hESC, line H7; assay: TSA or HDAC siRNA on pluripotent hESC in mTeSR: developmental and epigenetic markers (Arrayscan); conditions: TSA 0.5, 1.0 and 2.0 nM for 2 days
Method: In all panels of FIG. 11, pluripotent hESC, line H7, were cultured in mTeSR media were plated in 96 well plates, fixed and immunostained for developmental and epigenetic markers, and the intensity was measured using the Thermo Fisher Arrayscan. 300 cells per well, 3 wells per condition were measured and standard deviations (error bars) and T Tests were evaluated. […] Anti-HDAC3 antibodies confirms that siRNA directed against HDAC3, but not HDAC1, HDAC2, or control knocked down the concentration of HDAC3 (P<0.05, data not background subtracted). […] This protein changes colony texture by producing smooth, homogeneous colonies. […] This marker is selective for high cells with high levels of pluripotency.

hESCs [3] = assay: TSA-mediated inhibition of noggin induction of neurectoderm differentiation
Method: The hESCs were grown and passaged via standard collagenase methods and passaged into two ibidi plastic 8-well slides. All hESCs were plated onto feederless plates with Stempro Media for 24 hours. hESCs were 50% confluent at time of passage and split 1:5.
All plates were fed with Neural Differentiation Media (1:1 mix of D-MEM/F12 supplemented with 1×N2 and Neurobasal medium supplemented with B27 (all from Gibco/Invitrogen); supplemented with 100 ng/ml mouse recombinant noggin (R & D systems), 50 U/ml penicillin/50 μg/ml streptomycin (Invitrogen) and 2 mML-glutamine (Invitrogen)) starting at day 0 (100 ng/mL noggin in N2B/27 with media changed daily). Six wells in each of two plates was treated with TSA (0-25 nM daily beginning 24 hours s/p plating hESC
Colonies were stained with HDACI and Nestin. These proteins co-stained in a peri-nuclear filamentous pattern consistent with previous Nestin distribution. Pax6 expression was negative.

[4] = 2 nM TSA in MIM plus BMP4, 48 hours, relative to BMP4 alone

CC(/C=C/C(=O)NO)=C\[C@@H](C)C(=O)c1ccc(N(C)C)cc1 [TSA, trichostatin A]
CDX2 expression (hESCs [1]; [4]): decrease
GATA6 expression (hESCs [1]; [4]): decrease
OCT4 level (hESCs [1]; [4]): significant OCT4 level increase
brachyury expression (hESCs [1]; [4]): decrease
expression of HDAC3 (hESCs [1]; TSA added to MIM with BMP4): significantly reduced
methylation of histone H3K9 (hESCs [1]; TSA added to MIM with BMP4): significantly reduced
BMP4-induced epithelial transformation (colony morphology by texture analysis) (hESCs [1]; TSA in MIM plus BMP4, 48 hours): significantly delayed
highest concentration without toxic effects (hESC): 1 nM
DNA methylation on 5'cytosine [2]: decreased
GTCM2 [2]: increased
H3K9me3 [2]: decreased
H3K27me3 [2]: decreased
HDAC3 [2]: significantly reduced
Nanog [2]: increased
histone acetylation on H3K9 [2]: decreased acetylation
increase of colony size [2]: 2 fold
peripheral F-actin [2]: increased
Oct4 ([2]; dose dependent): increased
molar sensitivity in hESC (hESCs [3]): 1 nM
HDAC (HDAC1 expression) (hESCs [3]; 1.0 nM TSA): reduces
expression of nestin (hESCs [3]; 1.0 nM TSA): reduces
methylation of histone H3 on lysine 9 (hESCs [3]; 1.0 nM TSA): reduces
effect on cell-cell adhesion and cell motility (hESCs [3]; 5 nM TSA, noggin differentiation media, 48 hrs): reduced cell-cell adhesion and increased cell motility
longer-term formation of neurectoderm (hESCs [3]; TSA treatment for 4 or more days): did not inhibit longer-term formation of neurectoderm
neurectoderm formation (hESCs [3]; TSA treatment for 2 days at the initiation of differentiation): inhibited neurectoderm formation

— US9607202B2, “Methods of generating trophectoderm and neurectoderm from human embryonic stem cells” (UNIVERSITY OF PITTSBURGH—OF THE COMMONWEALTH SYSTEM OF …, priority 2009, dated 2017)
